The target in the experiment is Factor D (Homo sapiens (Human), UniProt P00746). Put plainly: Factor D esterolytic assay (Z-Lys-SBzl substrate, DTNB, 405 nm). It counts as biochemical. The conditions noted are these: Z-Lys-SBzl 1.29 mM, pH 7.5, 10% DMSO, tested a minimum of three times, read-out: Measured Ki (IC50) Value for Compounds: IC50. How it is done: The IC50 value of a compound (i.e., the concentration of the compound that inhibits 50% of the enzymatic activity) was calculated according to the procedure reported in U.S. Pat. No. 6,653,340 B1, e.g., column 74 (incorporated by reference).
Factor D, sequence (P00746 26-253): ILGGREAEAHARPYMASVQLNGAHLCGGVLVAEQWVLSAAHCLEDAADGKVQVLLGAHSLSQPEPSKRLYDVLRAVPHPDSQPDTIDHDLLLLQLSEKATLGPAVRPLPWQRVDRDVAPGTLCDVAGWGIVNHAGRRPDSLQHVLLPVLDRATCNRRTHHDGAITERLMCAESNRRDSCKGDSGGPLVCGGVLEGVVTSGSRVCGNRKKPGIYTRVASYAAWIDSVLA
Specifically, the compounds were dissolved in a stock solution of DMSO at 10.0 or 100 mM. A portion of this stock solution was added to assay buffer in a final volume of 50 μL. Controls included buffer alone and enzyme solutions to which DMSO was added. Substrate was added to the reaction wells immediately or after incubation at room temperature. The reaction rates were measured spectrophotometrically by the generation of product at 405 nm for 600 sec. Background absorbance at 690 nm was measured and subtracted from the absorbance at 405 nm for each well.
The reaction rate for enzyme alone was compared to the rate of enzyme in the presence of inhibitor and the percent inhibition was calculated as shown below: Percent Inhibition=[Rate without inhibitor−Rate with inhibitor)/(Rate without inhibitor)]×100 Factor D Esterolytic Assay:
An established esterolytic assay for the measurement of Factor D activity and inhibition of Factor D activity was used (Kam, C. M.; McRae, B. J.; Harper, J. W.; Niemann, M. A.; Volanakis, J. E.; Powers, J. C. Human complement proteins D, C2, and B Active site mapping with peptide thioester substrates. J Biol. Chem. 1987, 262, 3444-3451). For this assay Z-Lys-SBzl, 1.29 mM (Kim, S.; Narayana, S. V. L; Volanakis, J. E. Mutational analysis of the substrate binding site of human complement Factor D. Biochemistry. 1994, 33, 14393-14399.) was used as the substrate for Factor D ([…]). Hydrolysis of this compound by Factor D liberated a free sulfhydryl group which is then reacted with 5,5′-dithiobis(2nitrobenzoic acid) producing an intense yellow color (Habeeb, A. F. S. A. Reaction of protein sulfhydryl groups with Ellman's Reagent. Methods in Enzymol. 1976, 25, 457-464). The assays were performed in 96 well microtiter plates and rates of hydrolysis were monitored at 405 nm on a Biotek Synergy H1 plate reader. Hydrolysis rates were reported as change in mOD/min. The assay was conducted in 100 mM HEPES, 500 mM NaCl, pH 7.5 containing 10% DMSO in a final volume of 50 μL per well.
An IC50, a compound concentration which inhibits 50% of the enzymatic activity, was calculated. Compounds in the examples were tested a minimum of three times.

The values below come from patent US11370774B2, “Substituted benzofuran, benzopyrrole, benzothiophene, and structurally related complement inhibitors” (BioCryst Pharmaceuticals, Inc., priority 2018, dated 2022).

The IC50 is the concentration at which inhibition is half-maximal.

Regarding `CN(Cc1ccccc1)Cc1cc2cc(COc3ccccc3CC(=O)O)cc(-c3cccc(CN)c3)c2o1` [Compound 287c, 2-(2-((7-(3-(aminomethyl)phenyl)-2-((benzyl(methyl)amino)methyl)benzofuran-5-yl)methoxy)phenyl)acetic acid], the half-maximal inhibitory concentration (IC50) was less than 1000 nM.

As for `NCc1cccc(-c2cc(COc3ccccc3CC(=O)O)cc3c2ccn3C(F)(F)F)c1` [Compound 517d, 2-(2-((4-(3-(aminomethyl)phenyl)-1-(trifluoromethyl)-1H-indol-6-yl)methoxy)phenyl)acetic acid], the IC50 was less than 1000 nM. As for `COCc1cc2cc(COc3cc(F)ccc3CC(=O)O)cc(-c3ccnc(CN)c3)c2o1` [Compound 515c, 2-(2-((7-(2-(aminomethyl)pyridin-4-yl)-2-(methoxymethyl)benzofuran-5-yl)methoxy)-4-fluorophenyl)acetic acid], the figure is less than 1000 nM; as for `NCc1cc(F)cc(-c2cc(COc3ccccc3CC(=O)O)cc3[nH]ccc23)c1` [Compound 69e, 2-(2-((4-(3-(aminomethyl)-5-fluorophenyl)-1H-indol-6-yl)methoxy)phenyl)acetic acid], less than 1000 nM. In the case of `COCc1cc2cc(COc3ccccc3CC(=O)O)cc(-c3ccnc(CN)c3F)c2o1` [Compound 120c, 2-(2-((7-(2-(aminomethyl)-3-fluoropyridin-4-yl)-2-(methoxymethyl)benzofuran-5-yl)methoxy)phenyl)acetic acid], the half-maximal inhibitory concentration (IC50) is less than 1000 nM.

In the case of `NCc1cccc(-c2cc(CNc3ccccc3CC(=O)O)cc3ccoc23)c1F` [Compound 152d, lithium 2-(2-(((7-(3-(aminomethyl)-2-fluorophenyl)benzofuran-5-yl)methyl)amino)phenyl)acetate], the half-inhibitory concentration (IC50) was less than 1000 nM. `NCc1nccc(-c2cc(COc3cc(F)ccc3CC(=O)O)c(F)c3ccoc23)c1F` [Compound 509d, 2-(2-((7-(2-(aminomethyl)-3-fluoropyridin-4-yl)-4-fluorobenzofuran-5-yl)methoxy)-4-fluorophenyl)acetic acid]: the IC50 was less than 1000 nM. Turning to `N[C@@H](c1cc(-c2cc(COc3ccccc3CC(=O)O)cc3ccoc23)ccn1)C(F)(F)F` [Compound 381e, (S)-2-(2-((7-(2-(1-amino-2,2,2-trifluoroethyl)pyridin-4-yl)benzofuran-5-yl)methoxy)phenyl)acetic acid], the IC50 is greater than 10000 nM. As to `NCc1cccc(-c2nc3c(c(C(=O)Nc4ccccc4CC(=O)O)n2)CCC3)c1` [Compound 2f, 2-(2-(2-(3-(aminomethyl)phenyl)-6,7-dihydro-5H-cyclopenta[d]pyrimidine-4-carboxamido)phenyl)acetic acid], the IC50 was less than 1000 nM. On to `COc1ccc(NCc2cc3cc(COc4ccccc4CC(=O)O)cc(-c4cccc(CN)c4)c3o2)cc1` [Compound 280c, 2-(2-((7-(3-(aminomethyl)phenyl)-2-(((4-methoxyphenyl)amino)methyl)benzofuran-5-yl)methoxy)phenyl)acetic acid], for which the IC50 was less than 1000 nM. With `Nc1ccc2c(-c3cc(COc4ccccc4CC(=O)O)cc4ccoc34)ncnn12` [Compound 204e, 2-(2-((7-(7-aminopyrrolo[2,1-f][1,2,4]triazin-4-yl)benzofuran-5-yl)methoxy)phenyl)acetic acid], the IC50 was greater than 10000 nM. In the case of `NCc1cccc(-c2cc(C(=O)Nc3ccccc3CC(=O)O)c(F)c3ccoc23)c1` [Compound 241c, 2-(2-(7-(3-(aminomethyl)phenyl)-4-fluorobenzofuran-5-carboxamido)phenyl)acetic acid] it was less than 1000 nM. As for `NCc1cccc(-c2cc(COc3cc(-c4ccc(F)cc4)ccc3CC(=O)O)cc3ccoc23)c1` [Compound 398c, 2-(3-((7-(3-(aminomethyl)phenyl)benzofuran-5-yl)methoxy)-4′-fluoro-[1,1′-biphenyl]-4-yl)acetic acid], the figure is less than 1000 nM; as for `NCc1cccc(-c2nc(C(=O)Nc3cscc3CC(=O)O)c3cccn3n2)c1F` [Compound 142d, 2-(4-(2-(3-(aminomethyl)-2-fluorophenyl)pyrrolo[2,1-f][1,2,4]triazine-4-carboxamido)thiophen-3-yl)acetic acid], less than 1000 nM; as for `Cc1c[nH]c2cc(C(=O)Nc3ccccc3CC(=O)O)cc(-c3cccc(CN)c3)c12` [Compound 81d, 2-(2-(4-(3-(aminomethyl)phenyl)-3-methyl-1H-indole-6-carboxamido)phenyl)acetic acid], greater than 10000 nM. In the case of `CC(C)S(=O)(=O)n1ccc2c(-c3ccnc(CN)c3)cc(COc3ccccc3CC(=O)O)cc21` [Compound 233c, 2-(2-((4-(2-(aminomethyl)pyridin-4-yl)-1-(isopropylsulfonyl)-1H-indol-6-yl)methoxy)phenyl)acetic acid] it was less than 1000 nM. Turning to `NCc1cccc(-c2cc(COc3ccccc3CC(=O)O)cc3[nH]ccc23)c1F` [Compound 58b, 2-(2-((4-(3-(aminomethyl)-2-fluorophenyl)-1H-indol-6-yl)methoxy)phenyl)acetic acid], the IC50 was less than 1000 nM. In the case of `NCc1cccc(-c2cc(COc3ccccc3CC(=O)O)cc3c(N)noc23)c1` [Compound 114j, 2-(2-((3-amino-7-(3-(aminomethyl)phenyl)benzo[d]isoxazol-5-yl)methoxy)phenyl)acetic acid] it was less than 1000 nM. As for `NCc1cccc(-c2cc(COc3ccc(Br)cc3CC(=O)O)cc3ccoc23)c1` [Compound 208d, 2-(2-((7-(3-(aminomethyl)phenyl)benzofuran-5-yl)methoxy)-5-bromophenyl)acetic acid], the figure is less than 1000 nM; as for `Cc1cccc(OCc2cc(-c3cccc(CN)c3)c3occc3c2)c1CC(=O)O` [Compound 314f, 2-(2-((7-(3-(aminomethyl)phenyl)benzofuran-5-yl)methoxy)-6-methylphenyl)acetic acid], less than 1000 nM; as for `COCc1cc2cc(COc3cc(F)ccc3CC(=O)O)cc(-c3ccnc(CN)c3F)c2o1` [Compound 514d, 2-(2-((7-(2-(aminomethyl)-3-fluoropyridin-4-yl)-2-(methoxymethyl)benzofuran-5-yl)methoxy)-4-fluorophenyl)acetic acid], less than 1000 nM. As to `Cn1ccc2c(-c3ccnc(CN)c3)cc(COc3ccccc3CC(=O)O)cc21` [Compound 133c, 2-(2-((4-(2-(aminomethyl)pyridin-4-yl)-1-methyl-1H-indol-6-yl)methoxy)phenyl)acetic acid], the IC50 was less than 1000 nM.

For the compound `Cc1c(CN)cccc1-c1cc(COc2ccccc2CC(=O)O)cc2ccoc12` [Compound 68c, 2-(2-((7-(3-(aminomethyl)-2-methylphenyl)benzofuran-5-yl)methoxy)phenyl)acetic acid], the IC50 was less than 1000 nM. Regarding `NCc1cc(-c2cc(COc3c(F)cccc3CC(=O)O)cc3ccoc23)ccn1` [Compound 504c, 2-(2-((7-(2-(aminomethyl)pyridin-4-yl)benzofuran-5-yl)methoxy)-3-fluorophenyl)acetic acid], the IC50 is less than 1000 nM. In the case of `NCc1cccc(-c2cc(COc3ccccc3CC(=O)O)cc3sccc23)c1F` [Compound 117b, 2-(2-((4-(3-(aminomethyl)-2-fluorophenyl)benzo[b]thiophen-6-yl)methoxy)phenyl)acetic acid] it was less than 1000 nM.

As to `NCc1cccc(-c2cc(COc3ccccc3CC(=O)O)cc3c2cnn3CC2CC2)c1` [Compound 126h, 2-(2-((4-(3-(aminomethyl)phenyl)-1-(cyclopropylmethyl)-1H-indazol-6-yl)methoxy)phenyl)acetic acid], the IC50 is less than 1000 nM.
